Measurements taken from publication PMC11157491, “Novel Alaninamide Derivatives with Drug-like Potential for Development as Antiseizure and Antinociceptive Therapies—In Vitro and In Vivo Characterization” (ACS Chemical Neuroscience, 2024).

Assays:
mice = assay: Oxaliplatin (OXPT)-induced peripheral neuropathy, von Frey test; format: in vivo
Protocol: The method is based on measuring the mean force that caused the paw withdrawal reaction, i.e., pain threshold. […] In the group treated with 28 at a dose of 25 mg/kg (Figure 6C), the initial value of 5.84 ± 0.43 (baseline) was decreased to the value of 2.78 ± 0.34 (47.6% of the baseline) and 3.39 ± 0.36 (58.0% of the baseline) in the early and late phases, respectively. […] In the group treated with the test compound at a dose of 75 mg/kg, the initial value of 6.17 ± 0.56 decreased to the values of 2.93 ± 0.45 (47.5% of the baseline) and 3.61 ± 0.28 (58.5% of the baseline) in the early and late phases, respectively.
The experimental groups consisted of 10 adult male Albino Swiss mice (CD-1, 18–25 g). Each animal was tested only once. Immediately after the assay, the animals were sacrificed by cervical dislocation. Behavioral measurements were observed by trained observers. The in vivo antinociceptive assays were in accordance with Polish regulations and the European Union Directive of 22 Sept 2010 (2010/63/EU). All procedures were carried out according to the rules of the International Council on Laboratory Animal Science (ICLAS) and were approved by the Local Ethics Committee in Cracow, Poland (104/2015, 279/2019, and 614/2022). The tested substances were suspended in a 1% aqueous solution of Tween 80 and were injected i.p. 30 min prior to the test. Control group animals (negative control) were administered with an appropriate amount of vehicle (Tween 80, 1% aqueous solution, i.p.) 30 min prior to the test. […] Before formalin application, different groups of animals were injected i.p. with vehicle (10 mL/kg, negative control). The in vivo procedure for the model of capsaicin-induced nociception was previously reported;[67] the animals were pretreated with vehicle (10 mL/kg, negative control), and the dose–response of investigated compounds was evaluated at 12.5, 25, and 50 mg/kg.
Data are presented as means ± standard error of the mean (SEM). GraphPad Prism Software (v.5) was used to analyze the vast majority of data. Statistically significant differences between groups were calculated using one-way analysis of variance (ANOVA) and the post hoc Dunnett’s multiple comparison test or two-way analysis of variance (ANOVA). The criterion for significance was set at p < 0.05. The log-probit method was applied to statistically determine the ED50 values with 95% confidence limits.

[1] = target: T1, Cav2.2 calcium ion channel (Rattus norvegicus, UniProt Q02294); assay: Cav2.2 binding (antagonist radioligand); details: rat cerebral cortex, read-out: % inhibition of control specific binding
T1 construct: rat cerebral cortex; tissue Eurofins (contract assay); host or cells: rat cerebral cortex
T1 sequence (Q02294 whole entry): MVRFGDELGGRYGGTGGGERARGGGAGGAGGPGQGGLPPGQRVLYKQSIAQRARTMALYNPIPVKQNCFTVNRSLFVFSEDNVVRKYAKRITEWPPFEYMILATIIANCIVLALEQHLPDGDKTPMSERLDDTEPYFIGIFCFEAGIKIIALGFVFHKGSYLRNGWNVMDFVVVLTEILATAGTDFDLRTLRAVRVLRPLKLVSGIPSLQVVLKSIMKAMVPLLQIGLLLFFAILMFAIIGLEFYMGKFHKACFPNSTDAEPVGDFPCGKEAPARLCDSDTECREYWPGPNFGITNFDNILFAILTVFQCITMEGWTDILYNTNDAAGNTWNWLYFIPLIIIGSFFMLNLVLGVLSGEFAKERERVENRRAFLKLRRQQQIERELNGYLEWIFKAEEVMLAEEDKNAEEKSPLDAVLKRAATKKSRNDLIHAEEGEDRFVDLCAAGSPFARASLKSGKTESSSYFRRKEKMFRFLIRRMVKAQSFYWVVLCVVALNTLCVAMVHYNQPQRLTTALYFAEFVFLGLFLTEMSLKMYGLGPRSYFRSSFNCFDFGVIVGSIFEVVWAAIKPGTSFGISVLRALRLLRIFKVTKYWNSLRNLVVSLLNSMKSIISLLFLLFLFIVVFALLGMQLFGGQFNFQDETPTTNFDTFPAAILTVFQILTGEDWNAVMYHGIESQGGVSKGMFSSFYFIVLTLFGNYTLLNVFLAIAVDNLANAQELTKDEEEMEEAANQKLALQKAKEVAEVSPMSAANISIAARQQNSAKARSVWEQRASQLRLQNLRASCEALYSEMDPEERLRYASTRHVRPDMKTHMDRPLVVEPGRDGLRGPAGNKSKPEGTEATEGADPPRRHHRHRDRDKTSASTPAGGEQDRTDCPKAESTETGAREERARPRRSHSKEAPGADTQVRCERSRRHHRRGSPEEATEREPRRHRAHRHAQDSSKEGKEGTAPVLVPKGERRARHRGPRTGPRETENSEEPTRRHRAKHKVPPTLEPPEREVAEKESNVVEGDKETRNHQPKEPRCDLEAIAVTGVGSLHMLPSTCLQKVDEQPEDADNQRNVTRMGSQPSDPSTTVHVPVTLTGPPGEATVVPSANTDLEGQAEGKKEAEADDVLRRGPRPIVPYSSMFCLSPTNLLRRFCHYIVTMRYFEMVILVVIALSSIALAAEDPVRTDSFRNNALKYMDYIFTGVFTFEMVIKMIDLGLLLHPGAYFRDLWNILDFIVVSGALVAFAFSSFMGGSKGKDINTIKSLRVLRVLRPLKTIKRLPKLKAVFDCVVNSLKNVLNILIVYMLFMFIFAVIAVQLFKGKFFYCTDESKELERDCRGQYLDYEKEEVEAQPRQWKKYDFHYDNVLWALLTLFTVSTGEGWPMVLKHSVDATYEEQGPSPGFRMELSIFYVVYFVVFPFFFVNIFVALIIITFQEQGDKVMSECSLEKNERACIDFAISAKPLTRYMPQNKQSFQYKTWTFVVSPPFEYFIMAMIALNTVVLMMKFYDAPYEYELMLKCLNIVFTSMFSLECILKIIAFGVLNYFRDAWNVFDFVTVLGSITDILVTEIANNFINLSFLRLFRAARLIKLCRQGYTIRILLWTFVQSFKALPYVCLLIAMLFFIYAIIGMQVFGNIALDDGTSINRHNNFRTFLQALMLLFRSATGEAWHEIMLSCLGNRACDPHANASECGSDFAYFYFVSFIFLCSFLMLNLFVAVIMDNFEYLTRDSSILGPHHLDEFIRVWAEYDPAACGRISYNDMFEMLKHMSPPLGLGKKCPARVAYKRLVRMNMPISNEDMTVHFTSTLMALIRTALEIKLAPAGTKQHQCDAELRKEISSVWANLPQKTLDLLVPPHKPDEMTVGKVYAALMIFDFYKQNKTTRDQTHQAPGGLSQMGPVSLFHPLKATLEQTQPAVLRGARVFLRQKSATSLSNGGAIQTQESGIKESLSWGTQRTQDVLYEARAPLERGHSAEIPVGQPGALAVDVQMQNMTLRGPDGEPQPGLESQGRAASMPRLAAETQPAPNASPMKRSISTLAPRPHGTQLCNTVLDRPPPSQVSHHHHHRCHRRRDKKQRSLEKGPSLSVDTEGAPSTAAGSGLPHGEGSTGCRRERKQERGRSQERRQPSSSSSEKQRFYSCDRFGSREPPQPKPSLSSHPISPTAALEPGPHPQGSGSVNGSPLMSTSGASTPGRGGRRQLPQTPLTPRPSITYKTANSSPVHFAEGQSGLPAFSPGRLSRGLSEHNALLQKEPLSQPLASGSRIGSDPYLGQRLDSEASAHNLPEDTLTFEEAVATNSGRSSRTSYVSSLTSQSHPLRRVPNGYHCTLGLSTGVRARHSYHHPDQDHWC
T1 sequence (P54287 whole entry partner): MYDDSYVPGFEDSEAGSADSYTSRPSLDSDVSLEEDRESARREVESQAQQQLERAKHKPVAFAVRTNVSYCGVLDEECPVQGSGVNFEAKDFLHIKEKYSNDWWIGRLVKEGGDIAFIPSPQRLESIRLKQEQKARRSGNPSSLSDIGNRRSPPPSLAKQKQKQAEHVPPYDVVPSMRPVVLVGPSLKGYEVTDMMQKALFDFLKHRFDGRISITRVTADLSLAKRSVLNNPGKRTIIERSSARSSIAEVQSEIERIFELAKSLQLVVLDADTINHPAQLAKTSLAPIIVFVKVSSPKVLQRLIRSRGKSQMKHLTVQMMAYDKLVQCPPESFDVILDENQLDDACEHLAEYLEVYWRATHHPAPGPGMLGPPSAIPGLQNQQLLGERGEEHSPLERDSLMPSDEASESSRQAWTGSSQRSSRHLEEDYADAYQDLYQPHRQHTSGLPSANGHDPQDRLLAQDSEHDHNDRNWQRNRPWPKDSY
T1 sequence (P54290 25-944 partner limits assumed): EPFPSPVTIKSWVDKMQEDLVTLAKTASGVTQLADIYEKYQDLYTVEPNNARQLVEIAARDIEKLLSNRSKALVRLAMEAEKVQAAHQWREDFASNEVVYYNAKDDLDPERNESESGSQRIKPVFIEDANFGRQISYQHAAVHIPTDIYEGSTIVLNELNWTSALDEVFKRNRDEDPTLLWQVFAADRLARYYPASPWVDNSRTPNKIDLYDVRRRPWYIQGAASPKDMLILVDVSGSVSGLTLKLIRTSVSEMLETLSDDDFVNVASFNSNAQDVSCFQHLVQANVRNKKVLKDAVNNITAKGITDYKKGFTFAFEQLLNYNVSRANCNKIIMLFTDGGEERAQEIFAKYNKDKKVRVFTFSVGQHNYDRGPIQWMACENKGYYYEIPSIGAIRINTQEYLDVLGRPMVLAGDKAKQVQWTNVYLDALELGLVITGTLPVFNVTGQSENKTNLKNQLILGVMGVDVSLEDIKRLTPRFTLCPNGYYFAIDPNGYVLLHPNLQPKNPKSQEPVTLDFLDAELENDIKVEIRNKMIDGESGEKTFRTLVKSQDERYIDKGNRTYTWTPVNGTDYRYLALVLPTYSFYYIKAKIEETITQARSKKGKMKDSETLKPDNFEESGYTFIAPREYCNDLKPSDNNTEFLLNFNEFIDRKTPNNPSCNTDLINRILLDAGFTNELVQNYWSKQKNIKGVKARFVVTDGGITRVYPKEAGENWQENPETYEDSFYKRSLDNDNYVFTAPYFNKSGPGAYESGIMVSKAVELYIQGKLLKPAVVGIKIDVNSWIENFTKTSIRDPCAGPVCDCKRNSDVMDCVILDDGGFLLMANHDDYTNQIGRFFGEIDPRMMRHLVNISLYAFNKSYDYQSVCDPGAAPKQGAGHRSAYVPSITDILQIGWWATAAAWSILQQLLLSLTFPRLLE
T1 sequence (P54290 945-1091 partner limits assumed): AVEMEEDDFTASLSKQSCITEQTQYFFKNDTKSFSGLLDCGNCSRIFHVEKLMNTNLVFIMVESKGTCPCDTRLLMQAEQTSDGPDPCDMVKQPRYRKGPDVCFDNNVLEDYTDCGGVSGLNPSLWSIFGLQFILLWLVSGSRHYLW
Protocol: Binding/functional studies were carried out commercially in Eurofins Laboratories (Poitiers, France) and Eurofins Panlabs Discovery Services Taiwan, Ltd. (New Taipei City, Taiwan) using testing procedures that were reported previously (for details, see Table S2).
Table S2. Radioligand binding and functional assays. […]
Cav2.2 calcium ion channel (antagonist radioligand) […]
Potassium channel (hERG) […]
Assays were performed commercially in Eurofins Laboratories ( Poitiers, France) or Eurofins Panlabs Discovery Services
Taiwan, Ltd. (New Taipei City, Taiwan).

inhibition at 100 µM [1]: 3.6%
SMILES: CC(=O)NC(C)C(=O)N1CCN(c2cccc(OC(F)(F)F)c2)CC1 (stereo not drawn) [Compound 28, N-(1-oxo-1-(4-(3-(Trifluoromethoxy)phenyl)piperazin-1-yl)propan-2-yl)acetamide]
pain threshold after compound, % of the baseline (mice; 25 mg/kg, early phase (3 h after OXPT)): 99.5% | pain threshold after compound, % of the baseline (mice; 50 mg/kg, early phase (3 h after OXPT)): 85.4% | pain threshold after compound, % of the baseline (mice; 50 mg/kg, late phase (7 days after OXPT)): 104.8% | pain threshold after compound, % of the baseline (mice; 75 mg/kg, early phase (3 h after OXPT)): 121.5% | pain threshold after compound, % of the baseline (mice; 75 mg/kg, late phase (7 days after OXPT)): 91.3%
